Assays:
[1] = tested on: influenza A(H3N2) infection with pneumonia; settings: human, in vivo
[2] = tested on: NIRV mutants E119V, R292K and N294S; settings: cited from earlier work

In the case of `CCOC(=O)C1=C[C@@H](OC(CC)CC)[C@H](NC(C)=O)[C@@H](N)C1` [Oseltamivir, ethyl (3R,4R,5S)-5-amino-4-acetamido-3-(pentan-3-yloxy)-cyclohex-1-ene-1-carboxylate], the “Admission to ICU - (%)” value [1] is reported as “(2.7) %”, the “Admission to ICU - no.” value [1] is reported as 3 no and the “Complications: Nosocomial infection - (%)” value [1] is reported as “(5.5) %”. The “Complications: Nosocomial infection - no.” value [1] was 6 no, the “Complications: Ventilator associated pneumonia - (%)” value [1] was “(0.9) %” and the “Complications: Ventilator associated pneumonia - no.” value [1] was 1 no. For the same molecule, the “Length of hospitalization (median; IQR)” value [1] was 3, the “Mortality 90-day - (%)” value [1] was “(10) %” and the “Mortality 90-day - no.” value [1] was 11 no. The “Readmission ≤30 days from discharge - (%)” value [1] was “(17.3) %”, the “Readmission ≤30 days from discharge - no.” value [1] was 19 no and the “increase of the 50% inhibitory concentration (IC50) by NIRV mutants” value [2] was greater than 100 fold.

— patent US20190054060A1 (priority 2016, published 2019)
